Reference: US8637504B2, “Sulfur-containing heterocyclic derivative having beta secretase inhibitory activity” (Shionogi & Co., Ltd., priority 2008, dated 2014)

Test system: not listed separately
Assay: Solubility test
Format: physicochemical
Conditions: pH 1.2, simulated gastric fluid, kinetic from dmso stock; JP-I medium, turbidity after 4 hours
Description: A 2-fold dilution series (12 points) of a 10 mM solution of a test compound in DMSO was added to a medium (JP-I, JP-II) (2%), and solubility was assessed by 3 stages (High; >40 Medium; 3-40 μM, Low; <3 μM) from a turbidity after 4 hours (crystallization information).

Row | Structure (SMILES) | solubility at 4 h
1 | COc1cnc(C(=O)Nc2cccc(C3(C4CCCCC4)CSC(N)=N3)c2)cn1 (centres unmarked) [Compound 2] | > 40 µM
2 | NC1=NC(c2ccc(F)cc2)(c2cccc(NC(=O)c3ncc(Cl)cc3Cl)c2)CS1 (centres unmarked) [Compound 9] | > 40 µM
3 | CC1=CSC(N)=N[C@]1(C)c1cc(NC(=O)c2cnc(C)cn2)ccc1F [Compound 23] | > 40 µM
4 | C[C@@]1(c2cc(NC(=O)c3ccc(OCCF)cn3)ccc2F)C=CSC(N)=N1 [Compound 32] | > 40 µM
5 | Cn1ccnc1COc1cnc(C(=O)Nc2ccc(F)c([C@]3(C)C=CSC(N)=N3)c2)cn1 [Compound 60] | > 40 µM

Molecular target: Recombinant human BACE-1 (Homo sapiens (Human), UniProt P56817)
Sequence (P56817 46-501): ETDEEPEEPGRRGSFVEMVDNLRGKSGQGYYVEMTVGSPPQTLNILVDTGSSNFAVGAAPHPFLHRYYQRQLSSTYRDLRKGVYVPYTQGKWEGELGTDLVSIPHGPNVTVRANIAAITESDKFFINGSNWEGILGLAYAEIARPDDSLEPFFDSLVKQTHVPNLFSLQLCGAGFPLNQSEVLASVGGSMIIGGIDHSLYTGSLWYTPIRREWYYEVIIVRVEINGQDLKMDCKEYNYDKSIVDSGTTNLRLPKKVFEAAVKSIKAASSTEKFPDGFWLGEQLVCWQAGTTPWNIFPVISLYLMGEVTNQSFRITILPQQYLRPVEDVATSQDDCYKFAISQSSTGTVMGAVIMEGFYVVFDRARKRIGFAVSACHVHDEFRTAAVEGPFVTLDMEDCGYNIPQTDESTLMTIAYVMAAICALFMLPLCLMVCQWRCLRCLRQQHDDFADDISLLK
Assay: Assay of β-secretase-inhibiting activity
Conditions: not given

Row | Structure (SMILES) | IC50
6 | COCCOc1cnc(C(=O)Nc2cccc(C3(C4CCCCC4)CSC(N)=N3)c2)cn1 (centres unmarked) [Compound 1] | ≤ 1000 nM
7 | COc1ccc(C2(c3cccc(NC(=O)c4ncc(Cl)cc4Cl)c3)CSC(N)=N2)cc1 (centres unmarked) [Compound 4] | ≤ 1000 nM
8 | COc1ccc(C2(c3cccc(NC(=O)c4cnc(O)cn4)c3)CSC(N)=N2)cc1 (centres unmarked) [Compound 5] | ≤ 1000 nM
9 | Cc1cnc(C(=O)Nc2ccc(F)c([C@]3(C)C=CSC(N)=N3)c2)cn1 [Compound 12] | ≤ 1000 nM
10 | COc1cnc(C(=O)Nc2ccc(F)c([C@]3(C)C=CSC(N)=N3)c2)cn1 [Compound 13] | ≤ 1000 nM
11 | C#CCOc1cnc(C(=O)Nc2ccc(F)c([C@]3(C)C=CSC(N)=N3)c2)cn1 [Compound 14] | ≤ 1000 nM
12 | Cc1nc(C(=O)Nc2ccc(F)c([C@]3(C)C=CSC(N)=N3)c2)co1 [Compound 15] | ≤ 1000 nM
13 | COc1cnc(C(=O)Nc2ccc(F)c([C@]3(C)C=C(c4ccccc4)SC(N)=N3)c2)cn1 [Compound 18] | ≤ 1000 nM
14 | Cc1cnc(C(=O)Nc2ccc(F)c([C@]3(C)C=C(c4ccccc4)SC(N)=N3)c2)cn1 [Compound 19] | ≤ 1000 nM
15 | COc1cnc(C(=O)Nc2ccc(F)c([C@]3(C)C=C(C)SC(N)=N3)c2)cn1 [Compound 25] | ≤ 1000 nM
16 | C#CCOc1cnc(C(=O)Nc2ccc(F)c([C@]3(C)C=C(C)SC(N)=N3)c2)cn1 [Compound 26] | ≤ 1000 nM
17 | CC1=C[C@@](C)(c2cc(NC(=O)c3ccc(C#N)cn3)ccc2F)N=C(N)S1 [Compound 27] | ≤ 1000 nM
18 | COc1cnc(C(=O)Nc2cccc([C@]3(C)C=CSC(N)=N3)c2)cn1 [Compound 28] | ≤ 1000 nM
19 | C#CCOc1cnc(C(=O)Nc2cccc([C@]3(C)C=CSC(N)=N3)c2)cn1 [Compound 29] | ≤ 1000 nM
20 | C[C@@]1(c2cccc(NC(=O)c3ccc(C#N)cn3)c2)C=CSC(N)=N1 [Compound 30] | ≤ 1000 nM
21 | C[C@@]1(c2cc(NC(=O)c3cnc(OCCF)cn3)ccc2F)C=CSC(N)=N1 [Compound 31] | ≤ 1000 nM
22 | C[C@@]1(c2cc(NC(=O)c3ccc(OCCF)cn3)ccc2F)C=CSC(N)=N1 [Compound 32] | ≤ 1000 nM
23 | COCCOc1cnc(C(=O)Nc2ccc(F)c([C@]3(C)C=CSC(N)=N3)c2)cn1 [Compound 34] | ≤ 1000 nM
24 | C[C@@]1(c2cc(NC(=O)c3cnc(-c4ccc[nH]4)cn3)ccc2F)C=CSC(N)=N1 [Compound 36] | ≤ 1000 nM
25 | COc1cnc(C(=O)Nc2ccc(F)c([C@]3(C)C=CSC(N)=N3)c2)c(N)n1 [Compound 37] | ≤ 1000 nM
26 | NC1=NC(c2cccc(NC(=O)c3ncc(Cl)cc3Cl)c2)(C(F)(F)F)CCS1 (centres unmarked) [Compound 45] | ≤ 1000 nM

Row | Structure (SMILES) | IC50
27 | C#CCOc1cnc(C(=O)Nc2cccc(C3(C(F)(F)F)CCSC(N)=N3)c2)cn1 (centres unmarked) [Compound 49] | ≤ 1000 nM
28 | C=C1C[C@@](C)(c2cc(NC(=O)c3ccc(C#N)cn3)ccc2F)N=C(N)S1 [Compound 50] | ≤ 1000 nM
29 | C=C1C[C@@](C)(c2cc(NC(=O)c3ncc(Cl)cc3Cl)ccc2F)N=C(N)S1 [Compound 52] | ≤ 1000 nM
30 | C[C@@]1(c2cc(NC(=O)c3ccc(C#N)cn3)ccc2F)C/C(=C/CO)SC(N)=N1 [Compound 54] | ≤ 1000 nM
31 | CC(C)(O)/C=C1/C[C@@](C)(c2cc(NC(=O)c3ccc(C#N)cn3)ccc2F)N=C(N)S1 [Compound 55] | ≤ 1000 nM
32 | NC1=NC(c2ccc(OC(F)(F)F)cc2)(c2cccc(NC(=O)c3ncc(Cl)cc3Cl)c2)CS1 (centres unmarked) [Compound 57] | ≤ 1000 nM
33 | Cc1ncn(-c2cnc(C(=O)Nc3ccc(F)c([C@]4(C)C=CSC(N)=N4)c3)cn2)n1 [Compound 74] | ≤ 1000 nM
34 | C[C@@]1(c2cc(NC(=O)c3ncc(F)cc3F)ccc2F)C=CSC(N)=N1 [Compound 77] | ≤ 1000 nM
35 | C[C@@]1(c2cc(NC(=O)c3ncc(C#N)cn3)ccc2F)C=CSC(N)=N1 [Compound 78] | ≤ 1000 nM
36 | C[C@@]1(c2cc(NC(=O)c3ncc(Cl)cn3)ccc2F)C=CSC(N)=N1 [Compound 80] | ≤ 1000 nM
37 | C[C@@]1(c2cc(NC(=O)c3ncc(C#N)cc3F)ccc2F)C=CSC(N)=N1 [Compound 84] | ≤ 1000 nM
38 | C/C(CO)=C1\C[C@@](C)(c2cc(NC(=O)c3ccc(C#N)cn3)ccc2F)N=C(N)S1 [Compound 85] | ≤ 1000 nM
39 | C/C(=C1\C[C@@](C)(c2cc(NC(=O)c3ccc(C#N)cn3)ccc2F)N=C(N)S1)C(F)F [Compound 94] | ≤ 1000 nM
40 | C=C1C[C@@](C)(c2cc(NC(=O)c3ccc(C#N)cn3)cnc2Cl)N=C(N)S1 [Compound 95] | ≤ 1000 nM
41 | C/C(CN1CCOCC1)=C1\C[C@@](C)(c2cc(NC(=O)c3ccc(C#N)cn3)ccc2F)N=C(N)S1 [Compound 96] | ≤ 1000 nM
42 | C/C(CN1CCCC1)=C1\C[C@@](C)(c2cc(NC(=O)c3ccc(C#N)cn3)ccc2F)N=C(N)S1 [Compound 98] | ≤ 1000 nM
43 | C/C(CN(C)C)=C1\C[C@@](C)(c2cc(NC(=O)c3ccc(C#N)cn3)ccc2F)N=C(N)S1 [Compound 100] | ≤ 1000 nM
44 | C=C1C[C@@](C)(c2cc(NC(=O)c3ccc(C#N)cn3)cnc2C)N=C(N)S1 [Compound 103] | ≤ 1000 nM
45 | C=C1C[C@@](C)(c2cncc(NC(=O)c3ccc(C#N)cn3)c2)N=C(N)S1 [Compound 105] | ≤ 1000 nM
46 | C=C1C[C@@](C)(c2cncc(NC(=O)c3ccc(C(F)(F)F)cn3)c2)N=C(N)S1 [Compound 107] | ≤ 1000 nM

Same assay, conditions: Recombinant human BACE-1 7.4 nM, substrate peptide 18 nM, pH 5.0, 30° C. 3 hours

Row | Structure (SMILES) | IC50
47 | NC1=NC(c2cccc(NC(=O)c3ccc(O)cn3)c2)(C2CCCCC2)CS1 (centres unmarked) [Compound 3] | 966 nM
48 | C[C@@]1(c2cc(NC(=O)c3ccc(Cl)cn3)ccc2F)C=CSC(N)=N1 [Compound 16] | 10 nM
49 | CC(C)=C1C[C@@](C)(c2cc(NC(=O)c3cnc(C)cn3)ccc2F)N=C(N)S1 [Compound 20] | 95 nM
50 | COc1cnc(C(=O)Nc2ccc(F)c([C@]3(C)CC(=C(C)C)SC(N)=N3)c2)cn1 [Compound 21] | 19 nM
51 | COc1cnc(C(=O)Nc2ccc(F)c([C@@]3(C)N=C(N)SC=C3C)c2)cn1 [Compound 22] | 572 nM
52 | CC1=CSC(N)=N[C@]1(C)c1cc(NC(=O)c2cnc(C)cn2)ccc1F [Compound 23] | 5280 nM
53 | C#CCOc1cnc(C(=O)Nc2ccc(F)c([C@@]3(C)N=C(N)SC=C3C)c2)cn1 [Compound 24] | 54 nM
54 | COCCOc1ccc(C(=O)Nc2ccc(F)c([C@]3(C)C=CSC(N)=N3)c2)nc1 [Compound 33] | 73 nM
55 | C[C@@]1(c2cc(NC(=O)c3ccc(-c4ccc[nH]4)cn3)ccc2F)C=CSC(N)=N1 [Compound 39] | 97 nM
56 | Cc1cnc(C(=O)Nc2cccc(C3(C(F)(F)F)CCSC(N)=N3)c2)cn1 (centres unmarked) [Compound 44] | 2130 nM
57 | NC1=NC(c2cccc(NC(=O)c3cnc(OCCF)cn3)c2)(C(F)(F)F)CCS1 (centres unmarked) [Compound 46] | 611 nM
58 | N#Cc1ccc(C(=O)Nc2cccc(C3(C(F)(F)F)CCSC(N)=N3)c2)nc1 (centres unmarked) [Compound 47] | 91 nM
59 | COc1cnc(C(=O)Nc2cccc(C3(C(F)(F)F)CCSC(N)=N3)c2)cn1 (centres unmarked) [Compound 48] | 273 nM
60 | C=C1C[C@@](C)(c2cc(NC(=O)c3cnc(OC)cn3)ccc2F)N=C(N)S1 [Compound 51] | 16 nM
61 | C=C1C[C@@](C)(c2cc(NC(=O)c3cnc(C)cn3)ccc2F)N=C(N)S1 [Compound 53] | 76 nM
62 | NC1=NC(c2cccc(F)c2)(c2cccc(NC(=O)c3ncc(Cl)cc3Cl)c2)CS1 (centres unmarked) [Compound 56] | 352 nM
63 | COc1ccc(C2(c3cccc(NC(=O)c4ncc(Cl)cc4Cl)c3)CSC(N)=N2)cc1O (centres unmarked) [Compound 58] | 186 nM
64 | C[C@@]1(c2cc(NC(=O)c3ncc(C#N)cc3Cl)ccc2F)C=CSC(N)=N1 [Compound 59] | 19 nM
65 | Cn1ccnc1COc1cnc(C(=O)Nc2ccc(F)c([C@]3(C)C=CSC(N)=N3)c2)cn1 [Compound 60] | 243 nM
66 | C[C@@]1(c2cc(NC(=O)c3cnc(OCc4ncc[nH]4)cn3)ccc2F)C=CSC(N)=N1 [Compound 61] | 169 nM
67 | C[C@@]1(c2cc(NC(=O)c3cnc(NS(C)(=O)=O)cn3)ccc2F)C=CSC(N)=N1 [Compound 66] | 296 nM
68 | C[C@@]1(c2cc(NC(=O)c3cnc(-n4ccnn4)cn3)ccc2F)C=CSC(N)=N1 [Compound 72] | 250 nM
69 | C[C@@]1(c2cc(NC(=O)c3cnc(-n4nccn4)cn3)ccc2F)C=CSC(N)=N1 [Compound 73] | 234 nM
70 | Cc1ncnn1-c1cnc(C(=O)Nc2ccc(F)c([C@]3(C)C=CSC(N)=N3)c2)cn1 [Compound 75] | 697 nM
71 | C[C@@]1(c2cc(NC(=O)c3ccc(F)cn3)ccc2F)C=CSC(N)=N1 [Compound 76] | 62 nM
72 | C[C@@]1(c2cc(NC(=O)c3ncc(Br)cn3)ccc2F)C=CSC(N)=N1 [Compound 79] | 24 nM
73 | Cc1c(C(=O)Nc2ccc(F)c([C@]3(C)C=CSC(N)=N3)c2)oc2ccc(Br)cc12 [Compound 81] | 7 nM
74 | C=C1C[C@@](C)(c2cc(NC(=O)c3ncc(C#N)cc3F)cnc2Cl)N=C(N)S1 [Compound 101] | 22 nM
